Test results published in patent US8791132B2, “Compounds and methods for treatment of hypertension” (Medivation Technologies, Inc., priority 2011, dated 2014).
Values joined by “and” are separate entries in the source; they are usually repeats but may differ in a detail not shown here. Equal entries are not always repeated.

Assays:
[1] = target: T1, rat adrenergic α1B receptor (Rattus norvegicus, UniProt P15823); test: Radioligand binding, adrenergic α1B ([3H]Prazosin); settings: [3H]Prazosin; for Percentage inhibition of ligand binding, Adrenergic α1B / Percentage inhibition of ligand binding, Adrenergic α1B (0.1 μM): 0.1 µM
T1 construct: rat adrenergic α1B receptor obtained from Wistar Rat liver; from tissue; host or cells: Wistar rat liver
T1 sequence (P15823 1-515): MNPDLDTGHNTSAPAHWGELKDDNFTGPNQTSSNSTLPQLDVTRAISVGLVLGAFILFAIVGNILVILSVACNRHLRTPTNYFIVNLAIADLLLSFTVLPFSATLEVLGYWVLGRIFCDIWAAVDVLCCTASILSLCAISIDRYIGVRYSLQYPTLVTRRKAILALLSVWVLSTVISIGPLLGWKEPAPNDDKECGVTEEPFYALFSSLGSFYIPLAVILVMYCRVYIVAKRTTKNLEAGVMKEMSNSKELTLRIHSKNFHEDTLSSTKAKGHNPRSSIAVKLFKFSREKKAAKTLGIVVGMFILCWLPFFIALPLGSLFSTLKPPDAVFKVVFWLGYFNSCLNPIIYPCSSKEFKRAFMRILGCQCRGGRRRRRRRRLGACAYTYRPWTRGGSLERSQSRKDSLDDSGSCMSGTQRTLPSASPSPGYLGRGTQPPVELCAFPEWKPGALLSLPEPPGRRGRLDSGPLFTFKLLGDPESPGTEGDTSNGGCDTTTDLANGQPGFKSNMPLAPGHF
Procedure, shortened: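 Filter binding with Wistar rat liver α1B preparation: test compound plus 0.25 nM [3H]prazosin, 1 h at 25° C in modified Tris-HCl buffer pH 7.4.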

[2] = target: T2, human recombinant adrenergic α2B receptor (Homo sapiens, UniProt P18089); test: Radioligand binding, adrenergic α2B ([3H]Rauwolscine); settings: for Percentage inhibition of ligand binding, Adrenergic α2B / inhibition at 0.03 µM / Percentage inhibition of ligand binding, Adrenergic α2B (0.03 μM): compound at 0.03 μM, [3H]Rauwolscine; for Percentage inhibition of ligand binding, Adrenergic α2B / inhibition at 0.03 µM: repeat assays, each datapoint shown; for inhibition at 0.03 µM: read-out: Percentage inhibition of ligand binding, Adrenergic α2B; for Percentage inhibition of ligand binding, Adrenergic α2B (0.03 μM): repeat datapoints each shown
T2 construct: expressed in transfected cells; host or cells: CHO-K1
T2 sequence (P18089 1-450): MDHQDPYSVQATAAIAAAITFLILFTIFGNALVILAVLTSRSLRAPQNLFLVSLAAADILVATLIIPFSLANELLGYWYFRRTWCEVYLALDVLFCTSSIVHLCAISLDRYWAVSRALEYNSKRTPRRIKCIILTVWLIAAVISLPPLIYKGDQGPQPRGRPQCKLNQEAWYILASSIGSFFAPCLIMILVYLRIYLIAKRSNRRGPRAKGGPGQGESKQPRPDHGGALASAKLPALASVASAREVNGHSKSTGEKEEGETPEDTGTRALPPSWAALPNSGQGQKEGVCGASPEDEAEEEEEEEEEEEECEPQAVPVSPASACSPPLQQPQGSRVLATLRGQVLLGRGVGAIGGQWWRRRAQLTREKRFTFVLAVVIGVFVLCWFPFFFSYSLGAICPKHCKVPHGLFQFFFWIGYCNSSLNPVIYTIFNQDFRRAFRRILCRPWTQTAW
Procedure, shortened: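 Membranes from CHO-K1 cells expressing human recombinant α2B, in 50 mM Tris-HCl pH 7.4, 12.5 mM MgCl2, 1 mM EDTA, 0.2% BSA, incubated with compound and 2.5 nM [3H]Rauwolscine, 60 min, 25 °C.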

[3] = target: T3, human recombinant adrenergic α2A receptor (Homo sapiens, UniProt P08913); test: Radioligand binding, adrenergic α2A ([3H]MK-912); settings: for Percentage inhibition of ligand binding, Adrenergic α2A / inhibition at 0.1 µM / Percentage inhibition of ligand binding, Adrenergic α2A (0.1 μM): compound at 0.1 μM; for Percentage inhibition of ligand binding, Adrenergic α2A / inhibition at 0.1 µM: repeat assays, each datapoint shown; for Percentage inhibition of ligand binding, Adrenergic α2A / Percentage inhibition of ligand binding, Adrenergic α2A (0.1 μM): 0.1 µM; for inhibition at 0.1 µM: read-out: Percentage inhibition of ligand binding, Adrenergic α2A
T3 construct: expressed in transfected cells; host or cells: insect Sf9 cells
T3 sequence (P08913 1-465): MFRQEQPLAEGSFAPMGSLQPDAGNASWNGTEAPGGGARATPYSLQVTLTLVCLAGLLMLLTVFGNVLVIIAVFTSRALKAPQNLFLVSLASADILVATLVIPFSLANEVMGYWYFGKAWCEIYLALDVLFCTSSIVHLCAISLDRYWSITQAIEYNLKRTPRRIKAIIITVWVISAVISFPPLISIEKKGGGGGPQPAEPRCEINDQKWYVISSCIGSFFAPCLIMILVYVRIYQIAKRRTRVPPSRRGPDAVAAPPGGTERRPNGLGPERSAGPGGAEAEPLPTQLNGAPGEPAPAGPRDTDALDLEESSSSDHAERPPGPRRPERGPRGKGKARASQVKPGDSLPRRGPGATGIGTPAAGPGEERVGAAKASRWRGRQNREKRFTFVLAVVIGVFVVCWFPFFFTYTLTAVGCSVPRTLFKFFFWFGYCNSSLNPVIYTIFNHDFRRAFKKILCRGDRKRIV
Procedure, shortened: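 In 50 mM Tris-HCl (pH 7.4) containing 12.5 mM MgCl2 and 2 mM EDTA, Sf9-expressed receptor was exposed to test compound plus 1 nM [3H]MK-912 at 25 °C for 60 min. Specific binding, corrected using 10 μM WB-4101, was quantified by filtration and counting and expressed as percent inhibition.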

[4] = compound at 0.1 μM, repeat assays, each datapoint shown
[5] = compound at 0.1 μM, repeat datapoints each shown
[6] = [3H]MK-912, repeat datapoints each shown

Cc1cnc2c(c1)c1c(n2CC(O)c2ccncc2)CCN(C)C1 (single isomer, unassigned) [55a, 2-(3,6-dimethyl-5,6,7,8-tetrahydro-1,6,9-triaza-fluoren-9-yl)-1-pyridin-4-yl-ethanol]
Percentage inhibition of ligand binding, Adrenergic α1B [1, 4]: 28%
Percentage inhibition of ligand binding, Adrenergic α2B ([2]; 0.03 µM): 14%
Percentage inhibition of ligand binding, Adrenergic α2A ([3]; [3H]MK-912): 11%

Cc1cnc2c(c1)c1c(n2CC(O)c2ccncc2)CCN(C)C1 (single isomer, unassigned) [55b, 2-(3,6-dimethyl-5,6,7,8-tetrahydro-1,6,9-triaza-fluoren-9-yl)-1-pyridin-4-yl-ethanol]
Percentage inhibition of ligand binding, Adrenergic α1B [1, 4]: 57%
Percentage inhibition of ligand binding, Adrenergic α2B ([2]; 0.03 µM): 67%
Percentage inhibition of ligand binding, Adrenergic α2A ([3]; [3H]MK-912): 7%

Cc1ccc2c(c1)c1c(n2CC(C)(O)c2ccc[n+]([O-])c2)CCN(C)C1 (single isomer, unassigned) [56a]
Percentage inhibition of ligand binding, Adrenergic α1B [1, 4]: 1%
inhibition at 0.03 µM [2]: 20%
inhibition at 0.1 µM ([3]; [3H]MK-912): 11%

Cc1ccc2c(c1)c1c(n2CC(C)(O)c2ccc[n+]([O-])c2)CCN(C)C1 (single isomer, unassigned) [56b]
Percentage inhibition of ligand binding, Adrenergic α1B [1, 4]: 6%
Percentage inhibition of ligand binding, Adrenergic α2B ([2]; 0.03 µM): 28%
Percentage inhibition of ligand binding, Adrenergic α2A ([3]; [3H]MK-912): 17%

CN1CCc2c(c3cccc(Cl)c3n2CC(C)(O)c2cccnc2)C1 (single isomer, unassigned) [57a, 1-(6-chloro-2-methyl-1,2,3,4-tetrahydro-pyrido[4,3-b]indol-5-yl)-2-pyridin-3-yl-propan-2-ol]
Percentage inhibition of ligand binding, Adrenergic α1B [1, 4]: 3%
Percentage inhibition of ligand binding, Adrenergic α2B ([2]; 0.03 µM): 16%
inhibition at 0.1 µM ([3]; [3H]MK-912): 22%

CN1CCc2c(c3cccc(Cl)c3n2CC(C)(O)c2cccnc2)C1 (single isomer, unassigned) [57b, 1-(6-chloro-2-methyl-1,2,3,4-tetrahydro-pyrido[4,3-b]indol-5-yl)-2-pyridin-3-yl-propan-2-ol]
Percentage inhibition of ligand binding, Adrenergic α1B [1, 4]: 9%
Percentage inhibition of ligand binding, Adrenergic α2B ([2]; 0.03 µM): 84%
Percentage inhibition of ligand binding, Adrenergic α2A ([3]; [3H]MK-912): 24%

Cc1cnc2c(c1)c1c(n2CC(O)c2ccncc2)CCNC1 (single isomer, unassigned) [58a, 2-(3-methyl-5,6,7,8-tetrahydro-1,6,9-triaza-fluoren-9-yl)-1-pyridin-4-yl-ethanol]
Percentage inhibition of ligand binding, Adrenergic α1B [1, 4]: 7%
Percentage inhibition of ligand binding, Adrenergic α2B ([2]; 0.03 µM): 5%
Percentage inhibition of ligand binding, Adrenergic α2A ([3]; [3H]MK-912): 9%

Cc1cnc2c(c1)c1c(n2CC(O)c2ccncc2)CCNC1 (single isomer, unassigned) [58b, 2-(3-methyl-5,6,7,8-tetrahydro-1,6,9-triaza-fluoren-9-yl)-1-pyridin-4-yl-ethanol]
Percentage inhibition of ligand binding, Adrenergic α1B [1, 4]: 24%
Percentage inhibition of ligand binding, Adrenergic α2B ([2]; 0.03 µM): 39%
Percentage inhibition of ligand binding, Adrenergic α2A ([3]; [3H]MK-912): 0%

CN1CCc2c(c3cc(C(F)(F)F)ccc3n2CC(O)c2cccnc2)C1 (single isomer, unassigned) [59a]
inhibition at 0.1 µM ([1]; compound at 0.1 μM, repeat assays, each datapoint shown, read-out: Percentage inhibition of ligand binding, Adrenergic α1B): 11%
Percentage inhibition of ligand binding, Adrenergic α2B ([2]; 0.03 µM): 15%
inhibition at 0.1 µM ([3]; [3H]MK-912): 18%

CN1CCc2c(c3cc(C(F)(F)F)ccc3n2CC(O)c2cccnc2)C1 (single isomer, unassigned) [59b]
Percentage inhibition of ligand binding, Adrenergic α1B [1, 4]: 7%
Percentage inhibition of ligand binding, Adrenergic α2B ([2]; 0.03 µM): 31%
Percentage inhibition of ligand binding, Adrenergic α2A ([3]; [3H]MK-912): 12%

Cc1cnc2c(c1)c1c(n2CCc2ccc(C)nc2)CCN2CCCC12 (single isomer, unassigned) [74b, 10-methyl-7-(2-(6-methylpyridin-3-yl)ethyl)-2,3,5,6,7,11c-hexahydro-1H-pyrido[3′,2′:4,5]pyrrolo[2,3-g]indolizine]
Percentage inhibition of ligand binding, Adrenergic α1B [1, 4]: 28%
inhibition at 0.03 µM [2]: 27%
Percentage inhibition of ligand binding, Adrenergic α2A ([3]; [3H]MK-912): 14%

Cc1ccc2c(c1)c1c(n2CC(O)c2ccncc2)CC2CCCN2C1 (single isomer, unassigned) [76a]
Percentage inhibition of ligand binding, Adrenergic α1B [1, 4]: 78%
Percentage inhibition of ligand binding, Adrenergic α2B ([2]; 0.03 µM): 92%
Percentage inhibition of ligand binding, Adrenergic α2A ([3]; [3H]MK-912): 21%

Cc1ccc2c(c1)c1c(n2CC(O)c2ccncc2)CC2CCCN2C1 (single isomer, unassigned) [76b]
Percentage inhibition of ligand binding, Adrenergic α1B [1, 4]: 71%
Percentage inhibition of ligand binding, Adrenergic α2B ([2]; 0.03 µM): 34%
Percentage inhibition of ligand binding, Adrenergic α2A ([3]; [3H]MK-912): 18%

Cc1ccc2c(c1)c1c(n2CC(O)c2ccncc2)CC2CCCN2C1 (single isomer, unassigned) [76c]
Percentage inhibition of ligand binding, Adrenergic α1B [1, 4]: 33%
Percentage inhibition of ligand binding, Adrenergic α2B ([2]; 0.03 µM): 35%
Percentage inhibition of ligand binding, Adrenergic α2A ([3]; [3H]MK-912): 5%

Cc1ccc2c(c1)c1c(n2CC(O)c2ccncc2)CC2CCCN2C1 (single isomer, unassigned) [76d]
Percentage inhibition of ligand binding, Adrenergic α1B [1, 4]: 51%
Percentage inhibition of ligand binding, Adrenergic α2B ([2]; 0.03 µM): 91%
Percentage inhibition of ligand binding, Adrenergic α2A ([3]; [3H]MK-912): 40%

Cc1ccc2c(c1)c1c(n2CC(C)(O)c2ccc(F)cc2)CCN(C)C1 (single isomer, unassigned) [90a]
Percentage inhibition of ligand binding, Adrenergic α1B [1, 4]: 74%
inhibition at 0.03 µM [2]: 97%
Percentage inhibition of ligand binding, Adrenergic α2A ([3]; [3H]MK-912): 71%

Cc1ccc2c(c1)c1c(n2CC(C)(O)c2ccc(F)cc2)CCN(C)C1 (single isomer, unassigned) [90b]
Percentage inhibition of ligand binding, Adrenergic α1B [1, 4]: 81%
Percentage inhibition of ligand binding, Adrenergic α2B [2]: 97%
Percentage inhibition of ligand binding, Adrenergic α2A ([3]; [3H]MK-912): 82%

Cc1ccc(C(C)(O)Cn2c3c(c4cc(Cl)ccc42)CN(C)CC3)cn1 (single isomer, unassigned) [93a]
Percentage inhibition of ligand binding, Adrenergic α1B (0.1 μM) [1, 5]: 37%
inhibition at 0.03 µM ([1]; read-out: Percentage inhibition of ligand binding, Adrenergic α1B (0.03 μM), compound at 0.03 μM, repeat datapoints each shown): 13%
Percentage inhibition of ligand binding, Adrenergic α2B (0.03 μM) ([2]; 0.03 µM): 63% and 102%
Ki ([2]; read-out: Ki α2B): 1.14 nM
Ki [3]: 90.5 nM
Percentage inhibition of ligand binding, Adrenergic α2A (0.1 μM) [3, 6]: 25% and 36%
inhibition at 0.03 µM ([3]; read-out: Percentage inhibition of ligand binding, Adrenergic α2A (0.03 μM), compound at 0.03 μM, [3H]MK-912, repeat datapoints each shown): 14%

Cc1ccc(C(C)(O)Cn2c3c(c4cc(Cl)ccc42)CN(C)CC3)cn1 (single isomer, unassigned) [93b]
Percentage inhibition of ligand binding, Adrenergic α1B (0.1 μM) [1, 5]: 1%
Percentage inhibition of ligand binding, Adrenergic α2B (0.03 μM) ([2]; 0.03 µM): 26%
Percentage inhibition of ligand binding, Adrenergic α2A (0.1 μM) [3, 6]: −5%
